Values of other authors in patent US6310089A, “Composition for the administration of a D1-agonists” (West Pharmaceutical Services Drug Delivery & Clinical …, priority 1998, dated 2001).

How the values were obtained:
[1] = test system: Parkinson's disease; conditions: D1 partial agonists
[2] = test system: dopamine D1 receptors

| Compound | evaluation outcome [1] | agonism at dopamine D1 receptors [2] |
| --- | --- | --- |
| CN1Cc2ccccc2C2c3cccc4[nH]cc(c34)CC21 (single isomer, unassigned) [CY208.243] | inconclusive results | partial agonists |
| Oc1cc2c(cc1O)C(c1ccccc1)CNCC2 (stereo not shown) [SKF 38393] | inconclusive results | partial agonists |
